Assay results from patent publication US20230271959A1, “HETEROCYCLIC COMPOUND AS BCL-2 INHIBITOR” (Beijing Innocare Pharma Tech Co., Ltd., priority 2020, published 2023).

Tests used:
[1] = target: T1, human recombinant Bcl-XL protein (Homo sapiens, UniProt Q07817); assay: Fluorescence polarization test for inhibition of BCL-XL binding to FITC-BIM; settings: 10 nM BCL-XL, 10 nM FITC-BIM, read-out: FP BCL-XL IC50
T1 construct: purchased Beijing Yiqiao Shenzhou Biotechnology Co., Ltd. 10455-H0SE
Description: Fluorescence polarization assay was used to evaluate the effect of the compounds of the present invention on the biological activity of BCL-XL.
The effects of the compounds on the biological activity of BCL-XL were evaluated by detecting the effects of the compounds on the binding activity of BCL-XL to BIM using an affinity assay method based on the principle of fluorescence polarization. The reaction buffer contains the following components: PBS (pH 7.4, 3 mM Na2HPO4, 155 mM NaCl, 1 mM KH2PO4), 1 mM DTT; human recombinant Bcl-XL protein (Item No. 10455-H0SE) (purchased from Beijing Yiqiao Shenzhou Biotechnology Co., Ltd.) was diluted to 10 nM with reaction buffer; FITC-labeled BIM polypeptide (purchased from Nanjing GenScript Biotechnology Co., Ltd) was diluted to 10 nM with reaction buffer.
The compounds were dissolved in 100% DMSO and diluted to 1 μM, followed by 4-fold serial dilutions in DMSO to a minimum concentration of 0.061 nM, each concentration point was further diluted 50-fold with reaction buffer.
3 μL of solution containing the compound and 12 μL of solution containing BCL-XL were added to the black 384-well assay plate, mixed well, and incubated at room temperature for 15 minutes. Subsequently, 15 μL of FITC-BIM solution was added, and the reaction mixture was incubated at room temperature for 30 minutes in the dark place, and then the fluorescence polarization was detected immediately on an Envision multi-plate reader (Perkin Elmer), with 480 nm as the excitation wavelength and 535 nm as the emission wavelength. In this experiment, the group without BCL-XL protein was used as a negative control (100% inhibition), and the group with BCL-XL protein but without the compound was added as a positive control (0% inhibition). The inhibition percentage of the compound to the affinity of BCL-XL can be calculated using the following equation: […]
(§1) The IC50 of the compound was calculated from 8 concentration points using XLfit (ID Business Solutions Ltd., UK) software by the following equation:
(§2) Y=Bottom+(Top−Bottom)/(1+10^((log IC50−X)*slope factor))
(§3) where Y is the inhibition percentage, X is the logarithm of the concentration of the compound to be tested, Bottom is the maximum inhibition percentage, Top is the minimum inhibition percentage, and slope factor is the slope coefficient of the curve.

[2] = tested on: RS4;11 cells (acute lymphoblastic leukemia cells); assay: RS4;11 cell proliferation, CellTilter-Glo luminescence cell viability assay; format: cell-based; settings: CTG readout after 48 hours
Description: The effects of the compounds of the present invention on the proliferation of RS4;11 cells were evaluated using a luminescence cell viability assay.
A CellTilter-Glo (CTG) Assay Kit is used to detect ATP, a key indicator of the metabolism of living cells, through a unique, highly sensitive and stable luciferase. The luminescent signal generated in the assay is proportional to the number of the viable cells in the medium, therefore the cell proliferation of RS4;11 can be determined.
CellTilter-Glo reagent (Promega, G7572) is composed of CellTilter-Glo lyophilized powder and CellTilter-Glo buffer, and the lyophilized powder can be dissolved in the buffer for use.
RS4;11 cells (ATCC, CRL-1873) were cultured in RPMI1640 complete medium (Thermofisher, 72400-047) containing 10% FBS (GBICO, 10099-141) and 100 units/ml penicillin-streptomycin solution (Thermofisher, 15140122)), when the cells covered 80-90% in the culture vessel, they were digested and dispersed with 0.25% trypsin (containing EDTA) (Thermofisher, 25200056) and then planted in a white 384-well plate (Thermofisher, 164610), and then the 384-well plate was incubated overnight in a 37° C., 5% CO2 incubator. Compounds were dissolved in 100% DMSO and diluted to […], followed by 4-fold serial dilutions with DMSO to a minimum concentration of 0.061 μM, and each concentration point was further diluted 50-fold with FBS-free RPMI1640 medium. If the IC50 of the compound is very low, the initial concentration of the compound can be reduced. After overnight, 3 μL of the compound diluted in the medium was added to each well, and the mixture was gently centrifuged to mix. The group without cells was used as a negative control (100% inhibition), and the group with 0.2% DMSO was used as a positive control (0% inhibition). The 384-well plate was placed in a 37° C., 5% CO2 incubator for further cultivation. After 48 hours, the plate was taken out and equilibrated to room temperature. 15 μl of CTG reagent was added to each well, the plate was shaken gently for 3 minutes to make sure that the cell lysis was carried out thoroughly, then the plate was kept for 10 minutes to stabilize the luminescence signal, then the luminescence signal was read by EnVision (Perkin Elmer).
The inhibition percentage of the compounds to RS4;11 cell proliferation can be calculated using the following equation:
Inhibition Percentage=100−100*(signal compound-signal negative control)/(signal positive control-signal negative control)
as §1
Y=Bottom+(Top−Bottom)/(1+10^((Log IC50−X)*slope factor))
wherein, Y is the inhibition percentage, Bottom is the bottom plateau of the curve (the bottom plateau value of the S-shaped curve), Top is the top plateau of the curve (the top plateau value of the S-shaped curve), and X is the logarithm of the concentration of the compound to be tested.

[3] = target: T2, human recombinant Bcl-2 protein (Homo sapiens, UniProt P10415); assay: Fluorescence polarization test for inhibition of BCL-2 binding to FITC-BIM; settings: 5 nM BCL-2, 5 nM FITC-BIM, read-out: FP BCL-2 IC50
T2 construct: purchased Beijing Yigiao Shenzhou Biotechnology Co., Ltd. 10195-HOSE
T2 sequence (P10415 whole entry): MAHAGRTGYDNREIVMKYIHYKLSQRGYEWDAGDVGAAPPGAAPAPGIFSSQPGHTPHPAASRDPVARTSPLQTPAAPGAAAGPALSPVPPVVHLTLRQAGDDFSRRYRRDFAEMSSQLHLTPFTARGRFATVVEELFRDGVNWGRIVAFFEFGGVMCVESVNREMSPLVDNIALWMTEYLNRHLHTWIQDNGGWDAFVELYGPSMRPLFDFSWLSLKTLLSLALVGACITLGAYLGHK
Description: Fluorescence polarization assay was used to evaluate the effect of the compounds of the present invention on the biological activity of BCL-2.
The effects of the compounds on the biological activity of BCL-2 were evaluated by determining the effects of the compounds on the binding activity of BCL-2 to leukemia pro-apoptotic protein (BIM) using an affinity assay method based on the principle of fluorescence polarization. The reaction buffer comprises the following components: PBS (pH 7.4, 3 mM Na2HPO4, 155 mM NaCl, 1 mM KH2PO4), 1 mM DTT; human recombinant Bcl-2 protein (Item No. 10195-HOSE) (purchased from Beijing Yigiao Shenzhou Biotechnology Co., Ltd.) was diluted to 5 nM with the reaction buffer; FITC-labeled BIM polypeptide (purchased from Nanjing GenScript Biotechnology Co., Ltd.) was diluted to 5 nM with the reaction buffer.
The compounds were dissolved in 100% DMSO and diluted to 0.1, 1, 10 μM, followed by 4-fold serial dilutions with DMSO to a minimum concentration of 0.0061, 0.061, 0.61 nM, each concentration point was further diluted 50-fold with the reaction buffer.
3 μL of solution containing the compound and 12 μL of solution containing BCL-2 were added to the black 384-well assay plate, mixed well, and incubated at room temperature for 15 minutes. Subsequently, 15 μL of FITC-BIM solution was added, and the reaction mixture was incubated at room temperature for 30 minutes in dark place, and then the fluorescence polarization was detected immediately on an Envision multi-mode reader (Perkin Elmer), with 480 nm as the excitation wavelength and 535 nm as the emission wavelength. In this experiment, the group without BCL-2 protein was used as a negative control (100% inhibition), and the group with BCL-2 protein but without the compound was used as a positive control (0% inhibition). The inhibition percentage of the compound to the affinity of BCL-2 can be calculated using the following equation: […]
as §1, §2, §3

T1 sequence (Q07817 whole entry): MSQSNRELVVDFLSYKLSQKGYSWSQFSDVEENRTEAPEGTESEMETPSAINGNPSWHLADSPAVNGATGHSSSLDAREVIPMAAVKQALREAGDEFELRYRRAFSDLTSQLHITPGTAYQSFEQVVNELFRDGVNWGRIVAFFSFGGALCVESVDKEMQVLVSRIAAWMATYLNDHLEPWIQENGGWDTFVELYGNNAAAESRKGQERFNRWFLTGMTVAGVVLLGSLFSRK

| IC50 [1] [nM] | IC50 ([2]; Homo sapiens, RS4-11) [nM] | IC50 [3] [nM] | Molecule | IC50 [2] [nM] |
| --- | --- | --- | --- | --- |
| > 1000 | 42 | 12.8 | C[C@@H]1CN(CC2=C(c3ccc(Cl)cc3)CC(C)(C)CC2)CCN1c1ccc(C(=O)NS(=O)(=O)c2cc(F)c(NCC3CCOCC3)c([N+](=O)[O-])c2)c(Oc2cnc3[nH]ccc3c2)c1 [Example 11] |  |
| > 1000 | 22 | 3.15 | C[C@@H]1CN(c2ccc(C(=O)NS(=O)(=O)c3cc(F)c(NCC4CCOCC4)c([N+](=O)[O-])c3)c(Oc3cnc4[nH]ccc4c3)c2)CCN1CC1=C(c2ccc(Cl)cc2)CCC2(CC2)C1 [Example 37] |  |
| > 1000 | 4.25 | 2.13 | C[C@@H]1CCC(CN2CCN(c3ccc(C(=O)NS(=O)(=O)c4ccc(NCC5CCOCC5)c([N+](=O)[O-])c4)c(Oc4cnc5[nH]ccc5c4)c3)C[C@H]2C)=C(c2ccc(Cl)cc2)C1 [Example 19, 2-((1H-pyrrolo[2,3-b]pyridin-5-yl)oxy)-4-((R)-4-(((R)-4′-chloro-5-methyl-3,4,5,6-tetrahydro-[1,1′-biphenyl]-2-yl)methyl)-3-methylpiperazin-1-yl)-N-((3-nitro-4-(((tetrahydro-2H-pyran-4-yl)methyl)amino)phenyl)sulfonyl)benzamide] |  |
| > 1000 | 19 | 5.99 | C[C@H]1CCC(CN2CCN(c3ccc(C(=O)NS(=O)(=O)c4ccc(NCC5CCOCC5)c([N+](=O)[O-])c4)c(Oc4cnc5[nH]ccc5c4)c3)C[C@H]2C)=C(c2ccc(Cl)cc2)C1 [Example 15, 2-((1H-pyrrolo[2,3-b]pyridin-5-yl)oxy)-4-((R)-4-(((S)-4′-chloro-5-methyl-3,4,5,6-tetrahydro-[1,1′-biphenyl]-2-yl)methyl)-3-methylpiperazin-1-yl)-N-((3-nitro-4-(((tetrahydro-2H-pyran-4-yl)methyl)amino)phenyl)sulfonyl)benzamide] |  |
| > 1000 | 16 | 5.12 | C[C@@H]1CN(c2ccc(C(=O)NS(=O)(=O)c3ccc(NCC4CCOCC4)c([N+](=O)[O-])c3)c(Oc3cnc4[nH]ccc4c3)c2)CCN1CC1=C(c2ccc(Cl)cc2)CCC(C)(C)C1 [Example 27, (R)-2-((1H-pyrrolo[2,3-b]pyridin-5-yl)oxy)-4-(4-((4′-chloro-4,4-dimethyl-3,4,5,6-tetrahydro-[1,1′-biphenyl]-2-yl)methyl)-3-methylpiperazin-1-yl)-N-((3-nitro-4--(((tetrahydro-2H-pyran-4-yl)methyl)amino)phenyl)sulfonyl)benzamide] |  |
| > 1000 | 6.2 | 4.55 | C[C@@H]1CN(CC2=C(c3ccc(Cl)cc3)CC(C)(C)CC2)CCN1c1ccc(C(=O)NS(=O)(=O)c2ccc(NCC3CCOCC3)c([N+](=O)[O-])c2)c(Oc2cnc3[nH]ccc3c2)c1 [Example 8, (R)-2-((1H-pyrrolo[2,3-b]pyridin-5-yl)oxy)-4-(4-((4′-chloro-5,5-dimethyl-3,4,5,6-tetrahydro-[1,1′-biphenyl]-2-yl)methyl)-2-methylpiperazin-1-yl)-N-((3-nitro-4-(((tetrahydro-2H-pyran-4-yl)methyl)amino)phenyl)sulfonyl)benzamide] |  |
| > 1000 | 6.6 | 3.33 | C[C@@H]1CN(c2ccc(C(=O)NS(=O)(=O)c3ccc(NC[C@H]4COCCO4)c([N+](=O)[O-])c3)c(Oc3cnc4[nH]ccc4c3)c2)CCN1CC1=C(c2ccc(Cl)cc2)CC(C)(C)C2(CC2)C1 [Example 34, N-((4-((((S)-1,4-dioxan-2-yl)methyl)amino)-3-nitrophenyl)sulfonyl)-2-((1H-pyrrolo[2,3-b]pyridin-5-yl)oxy)-4-((R)-4-((6-(4-chlorophenyl)-8,8-dimethylspiro[2.5]oct-5-en-5-yl)methyl)-3-methylpiperazin-1-yl) benzamide] |  |

| Molecule | IC50 [1] [nM] | IC50 ([2]; Homo sapiens, RS4-11) [nM] | IC50 [3] [nM] | IC50 [2] [nM] |
| --- | --- | --- | --- | --- |
| 2-((1H-Pyrrolo[2,3-b]pyridin-5-yl) oxy)-4-((R)-4-(((S)-4′-chloro-5- methyl-3,4,5,6-tetrahydro-[1,1′-biphenyl]- 2-yl)methyl)-2-methylpiperazn-1- yl)-N-((3-nitro-4-((((S)-4-(3-oxetan yl)morpholin-2-yl)methyl)amino) phenyl)sulfonyl)benzamide [Example 18] | > 1000 |  | 1.32 | 2.4 |
